Experimental findings from doi:10.1101/2024.05.07.592940v1 (biorxiv, 2024) are described below.

Assay [1] deals with T1, PTPN2 (Homo sapiens, UniProt P17706, C216G).
T1 sequence (P17706 1-314 C216G): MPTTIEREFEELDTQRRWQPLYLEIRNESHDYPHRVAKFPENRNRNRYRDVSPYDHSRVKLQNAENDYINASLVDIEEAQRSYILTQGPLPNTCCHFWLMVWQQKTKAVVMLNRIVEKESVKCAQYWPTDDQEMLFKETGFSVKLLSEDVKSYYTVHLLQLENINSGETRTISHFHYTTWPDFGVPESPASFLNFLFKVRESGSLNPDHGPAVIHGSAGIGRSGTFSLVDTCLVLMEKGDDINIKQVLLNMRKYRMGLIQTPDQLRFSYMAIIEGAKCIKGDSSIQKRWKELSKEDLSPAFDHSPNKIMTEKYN
Briefly: microscale thermophoresis. The class given is binding. Background: In MST a laser heats a spot of the sample, and binding alters the fluorescence response.

The target in assay [2] is T2, PTPN2 (Homo sapiens, UniProt P17706).
T2 sequence (P17706 1-314): T1 sequence (P17706 1-314 C216G) with G216C
Briefly: microscale thermophoresis. Type of assay: binding.

For assay [3], the target named is T3, PTP1B (Homo sapiens, UniProt P18031).
T3 sequence (P18031 1-321): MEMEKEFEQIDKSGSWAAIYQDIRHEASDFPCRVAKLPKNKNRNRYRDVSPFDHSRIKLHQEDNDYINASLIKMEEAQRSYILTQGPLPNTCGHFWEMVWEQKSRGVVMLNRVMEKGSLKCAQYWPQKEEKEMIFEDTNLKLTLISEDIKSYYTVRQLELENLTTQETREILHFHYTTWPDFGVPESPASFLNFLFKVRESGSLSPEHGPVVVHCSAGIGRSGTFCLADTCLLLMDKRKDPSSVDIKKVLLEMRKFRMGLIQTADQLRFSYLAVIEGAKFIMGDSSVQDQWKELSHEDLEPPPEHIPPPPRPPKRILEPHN
The assay can be described thus: pNPP hydrolysis, absorbance […] nm. The class given is biochemical.

The target of assay [4] is T2, PTPN2. Briefly: pNPP hydrolysis, absorbance […] nm. Type of assay: biochemical.

Substitutions are numbered along the chain they refer to.

In general, Kd refers to a measure of binding affinity in units of concentration. Read a high Kd as a looser complex. A word on the IC50: it is the point on the concentration scale where inhibition reaches its midpoint. Read a low IC50 as higher potency. Regarding `O=c1sn(CCOc2ccc([N+](=O)[O-])cc2)c(=O)n1Cc1ccccc1` [K73], the Kd was 31.6 µM in assay [1] and 0.646 µM in assay [2]. The IC50 in assay [3] amounted to 4.27 µM; in assay [4], 0.324 µM.
For the molecule `O=c1sn(-c2cccc3ccccc23)c(=O)n1Cc1ccccc1` [NP-12], the IC50 worked out at 4.66 µM in assay [3] and 3.23 µM in assay [4].
